Results as given in patent US20020137929A1, “1 - (3-heterocyclylphenyl) isothiourea, -isourea, -guanidine and -amidine herbicidal agents” (Intellectual Property Department, BASF Aktiengesellschaft, priority 1998, published 2002).

What was measured:
CASOB (Sicklepod) = experiment: Postemergence herbicidal evaluation; format: in vivo, Cassia obtusifolia; conditions: postemergence
Procedure, shortened: (§1)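 Visual 0–9 rating versus control (stand, vigor, malformation, size, chlorosis, overall appearance), taken four to five weeks post-spray. Two-week-old seedlings received roughly 0.0156–0.500 kg/ha active in acetone/water (50/50) with 0.5% TWEEN 20 via nozzle at 40 psi.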

GALAP (Galium) = experiment: Postemergence herbicidal evaluation; format: in vivo, Galium aparine; conditions: postemergence
Procedure, shortened: as §1

ZEAMX (Corn, Field) [1] = experiment: Postemergence herbicidal evaluation; format: in vivo, Zea mays; conditions: postemergence
Procedure, shortened: as §1

AMBEL (Ragweed, Common) = experiment: Preemergence herbicidal evaluation; format: in vivo, Ambrosia artemisifolia; conditions: rated 4-5 weeks after treatment
Procedure, shortened: (§2)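 Scores (0–9) reflect visual comparison with control plants for stand, vigor, malformation, size and chlorosis. Compound was applied to the soil after sowing, before emergence, as an aqueous acetone spray (about 0.0156–0.500 kg/ha), and cups were kept in a greenhouse for 4–5 weeks.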

[2] = tested on: CHEAL (Lambsquarters, Common); experiment: Preemergence herbicidal evaluation; format: in vivo, Chenopodium album; conditions: rated 4-5 weeks after treatment
Procedure, shortened: as §2

[3] = tested on: IPOHE (Morningglory, Ivyleaf); experiment: Preemergence herbicidal evaluation; format: in vivo, Ipomoea hederacea; conditions: rated 4-5 weeks after treatment
Procedure, shortened: as §2

ORYSAT (Rice, Tebonnet) = experiment: Preemergence herbicidal evaluation; format: in vivo, Oryza sativa, (L.) Tebonnet; conditions: rated 4-5 weeks after treatment
Procedure, shortened: as §2

[4] = tested on: TRZAWR (Wheat, Winter, cv Riband); experiment: Preemergence herbicidal evaluation; format: in vivo, Triticum aestivum; conditions: rated 4-5 weeks after treatment
Procedure, shortened: as §2

ZEAMX (Corn, Field) [5] = experiment: Preemergence herbicidal evaluation; format: in vivo, Zea mays; conditions: rated 4-5 weeks after treatment
Procedure, shortened: as §2

[6] = tested on: ECHORC (Watergrass (Calif.)); experiment: Preemergence weed control under flooded paddy conditions; format: in vivo, Echinochloa oryzoides; conditions: rated 3-4 weeks after treatment
Procedure, shortened: (§3)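 Seeds or propagules sown in top 0.5 cm of silt loam soil, flooded 1.5 to 3 cm above surface throughout. Compound in 50/50 v/v aqueous/acetone pipetted into flood water at about 0.0313 to 0.500 kg/ha. Visual 0-9 rating versus control after three to four weeks in greenhouse.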

CYPIR (Rice Flatsedge) = experiment: as above; format: in vivo, Cyperus iria; conditions: rated 3-4 weeks after treatment
Procedure, shortened: as §3

CYPSE (Flatsedge) = experiment: as above; format: in vivo, Cyperus serotinus; conditions: rated 3-4 weeks after treatment
Procedure, shortened: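 Visual injury scored 0-9 against control three to four weeks post-treatment, greenhouse-grown. Application: acetone/water (50/50) solutions dosed directly into flood water (1.5-3 cm over silt loam, planted top 0.5 cm), roughly 0.0313 to 0.500 kg/ha active ingredient.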

[7] = rate 0.0156 kg/ha, rating scale 0-9
[8] = rate 0.0313 kg/ha, rating scale 0-9
[9] = rate 0.0625 kg/ha, rating scale 0-9
[10] = rate 0.1250 kg/ha, rating scale 0-9
[11] = rate 0.2500 kg/ha, rating scale 0-9

CCOC(=O)CN1C(=O)C(C(=O)OCC)SC1=Nc1cc(-n2c(=O)cc(C(F)(F)F)n(C)c2=O)c(F)cc1Cl (centres unmarked) [Compound 127, 5-Carboxy-2-{{2-chloro-5-[3,6-dihydro-3-methyl-2,6-dioxo-4-(trifluoromethyl)-1(2H)-pyrimidinyl]-4-fluorophenyl}imino}-4-oxo-3-thiazolidineacetic acid, diethyl ester]
3.0: herbicidal rating GALAP (GALAP (Galium); rate 0.1250 kg/ha) | Preemergence herbicidal rating ORYSAT (ORYSAT (Rice, Tebonnet); rate 0.5000 kg/ha)
9.0: Preemergence herbicidal rating AMBEL (AMBEL (Ragweed, Common); rate 0.5000 kg/ha) | Preemergence herbicidal rating CHEAL ([2]; rate 0.0313 kg/ha) | Preemergence herbicidal rating CHEAL ([2]; rate 0.0625 kg/ha) | Preemergence herbicidal rating CHEAL ([2]; rate 0.1250 kg/ha) | Preemergence herbicidal rating CHEAL ([2]; rate 0.2500 kg/ha) | Preemergence herbicidal rating CHEAL ([2]; rate 0.5000 kg/ha) | Preemergence herbicidal rating IPOHE ([3]; rate 0.2500 kg/ha) | Preemergence herbicidal rating IPOHE ([3]; rate 0.5000 kg/ha) | herbicidal effect rating, ECHORC ([6]; 0.1250 kg/ha) | herbicidal effect rating, ECHORC ([6]; 0.2500 kg/ha)
4.5: herbicidal rating ZEAMX (ZEAMX (Corn, Field) [1]; rate 0.0156 kg/ha) | herbicidal rating ZEAMX (ZEAMX (Corn, Field) [1]; rate 0.0313 kg/ha)
8.0: herbicidal rating ZEAMX (ZEAMX (Corn, Field) [1]; rate 0.1250 kg/ha) | Preemergence herbicidal rating ZEAMX (ZEAMX (Corn, Field) [5]; rate 0.5000 kg/ha)
5.0: Preemergence herbicidal rating AMBEL (AMBEL (Ragweed, Common); rate 0.2500 kg/ha)
4.0: Preemergence herbicidal rating ZEAMX (ZEAMX (Corn, Field) [5]; rate 0.2500 kg/ha) | herbicidal effect rating, ECHORC ([6]; 0.0313 kg/ha) | herbicidal effect rating, CYPIR (CYPIR (Rice Flatsedge); 0.1250 kg/ha) | herbicidal effect rating, CYPIR (CYPIR (Rice Flatsedge); 0.2500 kg/ha)
2.0: herbicidal rating GALAP (GALAP (Galium); rate 0.0625 kg/ha) | herbicidal effect rating, CYPIR (CYPIR (Rice Flatsedge); 0.0313 kg/ha) | herbicidal effect rating, CYPIR (CYPIR (Rice Flatsedge); 0.0625 kg/ha)
1.0: herbicidal rating CASOB (CASOB (Sicklepod); rate 0.0625 kg/ha) | herbicidal rating CASOB (CASOB (Sicklepod); rate 0.1250 kg/ha) | Preemergence herbicidal rating IPOHE ([3]; rate 0.1250 kg/ha)
7.0: herbicidal rating ZEAMX (ZEAMX (Corn, Field) [1]; rate 0.0625 kg/ha) | Preemergence herbicidal rating TRZAWR ([4]; rate 0.5000 kg/ha) | herbicidal effect rating, ECHORC ([6]; 0.0625 kg/ha)
0.0: herbicidal rating CASOB (CASOB (Sicklepod); rate 0.0156 kg/ha) | herbicidal rating CASOB (CASOB (Sicklepod); rate 0.0313 kg/ha) | herbicidal rating GALAP (GALAP (Galium); rate 0.0156 kg/ha) | herbicidal rating GALAP (GALAP (Galium); rate 0.0313 kg/ha) | Preemergence herbicidal rating AMBEL (AMBEL (Ragweed, Common); rate 0.0313 kg/ha) | Preemergence herbicidal rating AMBEL (AMBEL (Ragweed, Common); rate 0.0625 kg/ha) | Preemergence herbicidal rating IPOHE ([3]; rate 0.0313 kg/ha) | Preemergence herbicidal rating IPOHE ([3]; rate 0.0625 kg/ha) | Preemergence herbicidal rating ORYSAT (ORYSAT (Rice, Tebonnet); rate 0.0313 kg/ha) | Preemergence herbicidal rating ORYSAT (ORYSAT (Rice, Tebonnet); rate 0.0625 kg/ha) | Preemergence herbicidal rating ORYSAT (ORYSAT (Rice, Tebonnet); rate 0.1250 kg/ha) | Preemergence herbicidal rating ORYSAT (ORYSAT (Rice, Tebonnet); rate 0.2500 kg/ha) | Preemergence herbicidal rating TRZAWR ([4]; rate 0.0313 kg/ha) | Preemergence herbicidal rating TRZAWR ([4]; rate 0.0625 kg/ha) | Preemergence herbicidal rating TRZAWR ([4]; rate 0.1250 kg/ha) | Preemergence herbicidal rating TRZAWR ([4]; rate 0.2500 kg/ha) | Preemergence herbicidal rating ZEAMX (ZEAMX (Corn, Field) [5]; rate 0.0313 kg/ha) | Preemergence herbicidal rating ZEAMX (ZEAMX (Corn, Field) [5]; rate 0.0625 kg/ha) | Preemergence herbicidal rating ZEAMX (ZEAMX (Corn, Field) [5]; rate 0.1250 kg/ha) | herbicidal effect rating, CYPSE (CYPSE (Flatsedge); 0.0313 kg/ha) | herbicidal effect rating, CYPSE (CYPSE (Flatsedge); 0.0625 kg/ha) | herbicidal effect rating, CYPSE (CYPSE (Flatsedge); 0.1250 kg/ha) | herbicidal effect rating, CYPSE (CYPSE (Flatsedge); 0.2500 kg/ha)

Cc1cccc(CN2C(=O)CSC2=Nc2cc(-n3c(=O)cc(C(F)(F)F)n(C)c3=O)c(F)cc2Cl)c1 [Compound 130, 3-{4-Chloro-2-fluoro-5-{[3-(m-methylbenzyl)-4-oxo-2-thiazolidinylidene]amino}phenyl}-1-methyl-6-(trifluoromethyl)-2,4 (1H, 3H)-pyrimidinedione]
1.0: Preemergence herbicidal rating AMBEL (AMBEL (Ragweed, Common); [8]) | Preemergence herbicidal rating ORYSAT (ORYSAT (Rice, Tebonnet); [9]) | Preemergence herbicidal rating TRZAWR [4, 9] | Preemergence herbicidal rating ZEAMX (ZEAMX (Corn, Field) [5]; [8])
3.0: herbicidal rating GALAP (GALAP (Galium); rate 0.0313 kg/ha) | Preemergence herbicidal rating ORYSAT (ORYSAT (Rice, Tebonnet); [10]) | Preemergence herbicidal rating TRZAWR [4, 10] | herbicidal effect rating, ECHORC ([6]; 0.1250 kg/ha)
0.0: Preemergence herbicidal rating AMBEL (AMBEL (Ragweed, Common); [7]) | Preemergence herbicidal rating IPOHE [3, 7] | Preemergence herbicidal rating IPOHE [3, 8] | Preemergence herbicidal rating ORYSAT (ORYSAT (Rice, Tebonnet); [7]) | Preemergence herbicidal rating ORYSAT (ORYSAT (Rice, Tebonnet); [8]) | Preemergence herbicidal rating TRZAWR [4, 7] | Preemergence herbicidal rating TRZAWR [4, 8] | Preemergence herbicidal rating ZEAMX (ZEAMX (Corn, Field) [5]; [7]) | herbicidal effect rating, ECHORC ([6]; 0.0313 kg/ha) | herbicidal effect rating, CYPIR (CYPIR (Rice Flatsedge); 0.0313 kg/ha) | herbicidal effect rating, CYPSE (CYPSE (Flatsedge); 0.1250 kg/ha)
4.0: herbicidal rating CASOB (CASOB (Sicklepod); rate 0.0313 kg/ha) | Preemergence herbicidal rating ZEAMX (ZEAMX (Corn, Field) [5]; [9]) | herbicidal effect rating, ECHORC ([6]; 0.2500 kg/ha) | herbicidal effect rating, CYPIR (CYPIR (Rice Flatsedge); 0.1250 kg/ha)
7.0: Preemergence herbicidal rating AMBEL (AMBEL (Ragweed, Common); [9]) | Preemergence herbicidal rating IPOHE [3, 11] | Preemergence herbicidal rating ZEAMX (ZEAMX (Corn, Field) [5]; [10]) | herbicidal effect rating, CYPSE (CYPSE (Flatsedge); 0.2500 kg/ha)
2.0: herbicidal rating CASOB (CASOB (Sicklepod); rate 0.0156 kg/ha) | herbicidal rating GALAP (GALAP (Galium); rate 0.0156 kg/ha) | Preemergence herbicidal rating IPOHE [3, 9] | herbicidal effect rating, ECHORC ([6]; 0.0625 kg/ha) | herbicidal effect rating, CYPIR (CYPIR (Rice Flatsedge); 0.0625 kg/ha)
4.5: herbicidal rating ZEAMX (ZEAMX (Corn, Field) [1]; rate 0.0156 kg/ha) | herbicidal rating ZEAMX (ZEAMX (Corn, Field) [1]; rate 0.0313 kg/ha)
5.0: herbicidal rating CASOB (CASOB (Sicklepod); rate 0.0625 kg/ha) | herbicidal rating GALAP (GALAP (Galium); rate 0.0625 kg/ha) | herbicidal rating ZEAMX (ZEAMX (Corn, Field) [1]; rate 0.0625 kg/ha) | herbicidal effect rating, CYPSE (CYPSE (Flatsedge); 0.0313 kg/ha) | herbicidal effect rating, CYPSE (CYPSE (Flatsedge); 0.0625 kg/ha)
6.0: Preemergence herbicidal rating ORYSAT (ORYSAT (Rice, Tebonnet); [11]) | Preemergence herbicidal rating TRZAWR [4, 11] | herbicidal effect rating, CYPIR (CYPIR (Rice Flatsedge); 0.2500 kg/ha)
9.0: Preemergence herbicidal rating AMBEL (AMBEL (Ragweed, Common); [10]) | Preemergence herbicidal rating AMBEL (AMBEL (Ragweed, Common); [11]) | Preemergence herbicidal rating CHEAL [2, 7] | Preemergence herbicidal rating CHEAL [2, 8] | Preemergence herbicidal rating CHEAL [2, 9] | Preemergence herbicidal rating CHEAL [2, 10] | Preemergence herbicidal rating CHEAL [2, 11] | Preemergence herbicidal rating IPOHE [3, 10] | Preemergence herbicidal rating ZEAMX (ZEAMX (Corn, Field) [5]; [11])
